Measured values reported in patent publication US20260201324A1, “METHOD FOR DIFFERENTIATING NEURAL CREST STEM CELLS COMPRISING AXIAL SPECIFICATION INFORMATION” (BLESS BIOTHERAPEUTICS INC., priority 2022, published 2026).

B1: BMP4: signaling protein promoting ETS1 in initial neural crest stem cells (protein, UniProt P12644 293-408, looked up)
Bone morphogenetic protein 4: SPKHHSQRARKKNKNCRRHSLYVDFSDVGWNDWIVAPPGYQAFYCHGDCPFPLADHLNSTNHAIVQTLVNSVNSSIPKACCVPTELSAISMLYLDEYDKVVLKNYQEMVVEGCGCR

Tests used:
Assay type in all cases: cell-based, human
[1] = test system: initial NCSCs (expressing p75 NGFR or HNK1); test: Gene expression analysis of NCSCs after second differentiation with axial specification stimulating factor
Protocol: The NCSCs at the neural plate border-stage (cells on Day 5 of the differentiation) expressing p75 NGFR or HNK1 isolated by FACS in Example 3-1 were re-seeded at 300,000 cells per well in a 24-well plate coated with Geltrex, Matrigel, or Laminin+Fibronectin. After 24 hours, the PIM medium added on Day 5 for stabilization was gradually changed to a neurobasal medium containing 2% B-27 supplement, 1% N2 supplement, and 1% Glutamax together with fibroblast growth factor 2 (FGF2) (Table 2). As an axial specification stimulating factor, FGF2 was added to the culture medium on days 6 to 10 of differentiation, and the proliferated neural crest stem cells were purified by FACS using an antibody against the neural crest stem cell surface antigen p75 NGFR on days 11 to 14 of differentiation (FIG. 4).
Accordingly, it was confirmed that the role of the non-NCSCs is to activate FGF signaling of the initial NCSCs, inducing to cranial specification.

SOX9 reporter hESCs = test: Differentiation into cranial NCSCs using SOX9 reporter hESC (FACS)
Description: (§1) The initial NCSCs were isolated on Day 5 of the differentiation, and then, on Days 5 or 10, the expression of the ETS1 protein was confirmed in the FGF2-treated NCSCs by immunochemical analysis, and the direct effects of various signaling factors on the initial NCSCs were confirmed by FACS analysis.
When NCSCs were differentiated without FGF2 treatment using SOX9: reporter hESC, a known marker of cranial NCSCs, the differentiation efficiency into cranial NCSCs was approximately 25%, and when treated with bFGF, the percentage of SOX9-expressing cells was 80% or more (FIGS. 8C and 8D).

initial NCSCs = test: Mechanism analysis of axial specification of initial NCSCs by signaling factors (immunochemical analysis, FACS); details: initial NCSCs isolated on Day 5; for ETS1 protein expression: FGF2 effect through BMP4
Description: as §1

[2] = test system: NCSCs at the neural plate border-stage; test: mRNA expression of cranial and cardiac NCSC markers after second differentiation
Description: The NCSCs (those on Day 5 of the differentiation) at the neural plate border-stage obtained through the first differentiation in Example 3-1 were re-distributed and each treated with bFGF or CHIR99021+ retinoic acid to be differentiated into cranial NCSCs or cardiac NCSCs.

[3] = NCSCs treated at second differentiation

Molecule	expression of the HOX gene [1, 3]	expression of the TWIST1 gene (marker gene of cranial NCSCs) [1, 3]	expression ratio of ETS1/ZIC1 ([1]; second culture for 5 days, isolated initial NCSC group and unisolated mixed cell group)	ZIC1 gene expression in single cells ([1]; single NCSCs, from Day 4)	percentage of SOX9-expressing cells (SOX9 reporter hESCs; SOX9 reporter hESC, cranial NCSC differentiation)	differentiation efficiency from SOX9 reporter hESCs into cranial neural crest stem cells (SOX9 reporter hESCs; two-step differentiation method)	ZIC1 gene expression (initial NCSCs)	ETS1 protein expression (initial NCSCs)	ZIC1 gene expression (initial NCSCs; listed as bFGF)	mRNA expression of PRRX2 (cranial NCSC marker) [2]	mRNA expression of SOX9 (cranial NCSC marker) [2]	mRNA expression of TWIST1 (cranial NCSC marker) [2]
fibroblast growth factor 2 [FGF2]	decreased expression	increased expression	increased	significant decrease	≥ 80%	about 80%	inhibit	promotion	inhibitory effect	increased	increased	increased
B1								promotion				
